Read-outs that look alike come from different tables or passages of the source. Residues, ends and D or L forms follow the SMILES beside them.

For assay [1], the target named is T1, human glucagon receptor (GCGR) (Homo sapiens, UniProt P47871).
T1 construct: expressed in transfected cells; host or cells: CHO-JumpIn cells, stably transfected
The experiment in a line: cAMP assay on CHO-JumpIn cells stably transfected with human glucagon receptor (HitHunter cAMP).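 Note: peptides tested as 4-fold serial dilutions starting from a 2 µM solution, cells exposed 1 hr at RT in darkness, cAMP quantified against a cAMP standard curve.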 In kind it is cell-based. As to conditions: cAMP accumulation, CHO-JumpIn cells with human GCGR, value ± spread. (Cyclic AMP is a second messenger, typically raised through Gs and lowered through Gi signalling.)
Description: Briefly, a 2 μM solution of peptide was prepared, and 4-fold serial dilutions were made. 150 nL of the above titration was then dispensed into an Optiplate384 using an Echo555. […] The HitHunter® cAMP Assay kit calibration curve was prepared following the manufacturer’s protocol (DiscoveRx-90-0075L). 30,000 cells/well were added to the peptides, spun briefly at 500 rpm for 15 s and incubated at RT in the dark for 1 hr. The assay was developed as per the manufacturer’s instructions. cAMP accumulation due to GLP1R agonism or GCGR agonism was measured using an EnVision platereader (PerkinElmer), and calibrated using the cAMP standard curve. Data were analyzed using Assay Data Analyzer (ADA).

The target in assay [2] is T2, human GLP-1 receptor (GLP1R) (Homo sapiens, UniProt P43220).
T2 construct: expressed in transfected cells; host or cells: CHO-JumpIn cells, stably transfected
T2 sequence (P43220 24-463): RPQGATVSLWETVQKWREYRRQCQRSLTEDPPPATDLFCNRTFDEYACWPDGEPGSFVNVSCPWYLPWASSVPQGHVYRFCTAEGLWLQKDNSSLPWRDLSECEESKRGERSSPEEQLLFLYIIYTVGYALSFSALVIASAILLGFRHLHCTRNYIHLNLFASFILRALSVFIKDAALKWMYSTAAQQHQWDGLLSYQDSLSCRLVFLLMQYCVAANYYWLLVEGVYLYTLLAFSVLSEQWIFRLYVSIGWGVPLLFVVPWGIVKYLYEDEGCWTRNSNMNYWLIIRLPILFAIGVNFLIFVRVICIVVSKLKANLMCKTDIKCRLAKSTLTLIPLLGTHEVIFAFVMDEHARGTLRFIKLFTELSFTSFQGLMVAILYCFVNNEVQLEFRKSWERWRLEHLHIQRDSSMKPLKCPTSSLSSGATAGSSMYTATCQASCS
Put plainly: cAMP assay on CHO-JumpIn cells stably transfected with human GLP-1 receptor (HitHunter cAMP).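 Note: peptides tested as 4-fold serial dilution series, cells exposed 1 hr at RT in the dark, cAMP quantified against a cAMP standard calibration curve.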 Type of assay: cell-based. As to conditions: Table 2, cAMP accumulation, buffer PBS, 0.1% BSA, 100 μM RO 20-1724, 20% serum, 1 hr at RT, value ± spread, read-out: EC50 GLP1R.

Setting [3] is: Table 2, buffer PBS, 0.1% BSA, 100 μM RO 20-1724, 20% serum, 1 hr at RT, read-out: EC50 GCGR.

T1 sequence (P47871 26-477): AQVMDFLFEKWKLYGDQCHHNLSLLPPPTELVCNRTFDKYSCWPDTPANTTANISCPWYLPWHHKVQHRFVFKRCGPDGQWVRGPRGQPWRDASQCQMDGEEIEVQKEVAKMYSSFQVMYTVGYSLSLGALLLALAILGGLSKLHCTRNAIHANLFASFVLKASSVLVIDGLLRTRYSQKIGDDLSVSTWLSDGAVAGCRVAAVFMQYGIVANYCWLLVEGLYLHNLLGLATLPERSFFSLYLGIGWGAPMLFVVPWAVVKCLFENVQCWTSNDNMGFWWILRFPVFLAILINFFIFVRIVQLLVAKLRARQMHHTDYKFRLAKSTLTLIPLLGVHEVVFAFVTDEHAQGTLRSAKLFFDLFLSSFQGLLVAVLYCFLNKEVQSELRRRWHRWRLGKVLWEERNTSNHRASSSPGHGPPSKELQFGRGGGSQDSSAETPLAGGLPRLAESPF

For the molecule `CC[C@H](C)[C@H](NC(=O)[C@H](CC(C)C)NC(=O)[C@H](Cc1c[nH]c2ccccc12)NC(=O)[C@H](CCC(N)=O)NC(=O)[C@@H](NC(=O)[C@H](Cc1ccccc1)NC(=O)[C@H](CC(=O)O)NC(=O)[C@H](CCC(N)=O)NC(=O)[C@H](C)NC(=O)[C@H](CCCNC(=N)N)NC(=O)[C@H](CCCNC(=N)N)NC(=O)[C@H](C)NC(=O)[C@H](CC(=O)O)NC(=O)[C@H](CC(C)C)NC(=O)[C@H](Cc1ccc(O)cc1)NC(=O)[C@H](CCCCN)NC(=O)[C@H](CO)NC(=O)[C@H](Cc1ccc(O)cc1)NC(=O)[C@H](CC(=O)O)NC(=O)[C@H](CO)NC(=O)[C@@H](NC(=O)[C@H](Cc1ccccc1)NC(=O)[C@@H](NC(=O)CNC(=O)[C@H](CCC(N)=O)NC(=O)[C@H](CO)NC(=O)[C@@H](N)Cc1c[nH]cn1)[C@@H](C)O)[C@@H](C)O)C(C)C)C(=O)N[C@@H](CCCNC(=N)N)C(=O)N[C@H](C(N)=O)[C@@H](C)O` [Peptide 8], the EC50 – broadly, the concentration that produces a half-maximal response – in assay [1] (setting [3]) was determined as 0.038 ± 0.01 nM; in assay [2], 0.017 ± 0.001 nM.

For `CSCC[C@H](NC(=O)[C@H](CC(C)C)NC(=O)[C@H](Cc1c[nH]c2ccccc12)NC(=O)[C@H](CCC(N)=O)NC(=O)[C@@H](NC(=O)[C@H](Cc1ccccc1)NC(=O)[C@H](CC(=O)O)NC(=O)[C@H](Cc1c[nH]c2ccccc12)NC(=O)[C@H](C)NC(=O)[C@H](C)NC(=O)[C@H](CCCNC(=N)N)NC(=O)[C@H](CCC(=O)O)NC(=O)[C@H](CC(=O)O)NC(=O)[C@H](CC(C)C)NC(=O)[C@H](Cc1ccc(O)cc1)NC(=O)[C@H](CCCCN)NC(=O)[C@H](CCCNC(=N)N)NC(=O)[C@H](Cc1ccc(O)cc1)NC(=O)[C@H](CC(=O)O)NC(=O)[C@H](CO)NC(=O)[C@@H](NC(=O)[C@H](Cc1ccccc1)NC(=O)[C@@H](NC(=O)CNC(=O)[C@H](CCC(N)=O)NC(=O)[C@H](CO)NC(=O)[C@@H](N)Cc1c[nH]cn1)[C@@H](C)O)[C@@H](C)O)C(C)C)C(=O)N[C@@H](CC(N)=O)C(=O)N[C@H](C(N)=O)[C@@H](C)O` [Peptide 3] (H-HSQGTFTSDYRKYLDERAAWDFVQWLMNT-NH2), the EC50 in assay [1] (setting [3]) was 1.35 ± 0.173 nM; in assay [2] it was 0.427 ± 0.022 nM.

In the case of `CSCC[C@H](NC(=O)[C@H](CC(C)C)NC(=O)[C@H](CO)NC(=O)[C@H](CC(=O)O)NC(=O)[C@H](CC(C)C)NC(=O)[C@H](Cc1ccc(O)cc1)NC(=O)[C@H](CCCCN)NC(=O)[C@H](CO)NC(=O)[C@H](Cc1ccc(O)cc1)NC(=O)[C@H](CC(=O)O)NC(=O)[C@H](CO)NC(=O)[C@@H](NC(=O)[C@H](Cc1ccccc1)NC(=O)[C@@H](NC(=O)CNC(=O)[C@H](CCC(N)=O)NC(=O)[C@H](CO)NC(=O)[C@@H](N)Cc1c[nH]cn1)[C@@H](C)O)[C@@H](C)O)C(=O)N[C@@H](C)C(=O)N[C@@H](CCC(N)=O)C(=O)N[C@@H](CC(=O)O)C(=O)N[C@@H](Cc1ccccc1)C(=O)N[C@H](C(=O)N[C@@H](CCC(N)=O)C(=O)N[C@@H](Cc1c[nH]c2ccccc12)C(=O)N[C@@H](CC(C)C)C(=O)N[C@@H](CCSC)C(=O)N[C@@H](CO)C(=O)N[C@H](C(N)=O)[C@@H](C)O)C(C)C` [Peptide 5] (H-HSQGTFTSDYSKYLDSLMAQDFVQWLMST-NH2), the EC50 amounted to 0.025 ± 0.001 nM in assay [1] (setting [3]) and 0.133 ± 0.032 nM in assay [2].

In the case of `CSCC[C@H](NC(=O)[C@H](CC(=O)O)NC(=O)[C@H](CC(C)C)NC(=O)[C@H](Cc1ccc(O)cc1)NC(=O)[C@H](CCCCN)NC(=O)[C@H](CO)NC(=O)[C@H](Cc1ccc(O)cc1)NC(=O)[C@H](CC(=O)O)NC(=O)[C@H](CO)NC(=O)[C@@H](NC(=O)[C@H](Cc1ccccc1)NC(=O)[C@@H](NC(=O)CNC(=O)[C@H](CCC(N)=O)NC(=O)[C@H](CO)NC(=O)[C@@H](N)Cc1c[nH]cn1)[C@@H](C)O)[C@@H](C)O)C(=O)N[C@@H](CCC(N)=O)C(=O)N[C@@H](CCCNC(=N)N)C(=O)N[C@@H](C)C(=O)N[C@@H](Cc1c[nH]cn1)C(=O)N[C@@H](CC(=O)O)C(=O)N[C@@H](Cc1ccccc1)C(=O)N[C@H](C(=O)N[C@@H](CCC(N)=O)C(=O)N[C@@H](Cc1c[nH]c2ccccc12)C(=O)N[C@@H](CC(C)C)C(=O)N[C@@H](CCSC)C(=O)N[C@@H](CC(N)=O)C(=O)N[C@H](C(N)=O)[C@@H](C)O)C(C)C` [Peptide 32], the EC50 in assay [1] (setting [3]) is 0.014 ± 0.001 nM; in assay [2], 0.022 ± 0.001 nM.

For the molecule `CSCC[C@H](NC(=O)[C@H](CCCNC(=N)N)NC(=O)[C@H](CO)NC(=O)[C@H](CC(=O)O)NC(=O)[C@H](CC(C)C)NC(=O)[C@H](Cc1ccc(O)cc1)NC(=O)[C@H](CCCCN)NC(=O)[C@H](CO)NC(=O)[C@H](Cc1ccc(O)cc1)NC(=O)[C@H](CC(=O)O)NC(=O)[C@H](CO)NC(=O)[C@@H](NC(=O)[C@H](Cc1ccccc1)NC(=O)[C@@H](NC(=O)CNC(=O)[C@H](CCC(N)=O)NC(=O)[C@H](CO)NC(=O)[C@@H](N)Cc1c[nH]cn1)[C@@H](C)O)[C@@H](C)O)C(=O)N[C@@H](C)C(=O)N[C@@H](Cc1ccc(O)cc1)C(=O)N[C@@H](CC(=O)O)C(=O)N[C@@H](Cc1ccccc1)C(=O)N[C@H](C(=O)N[C@@H](CCC(N)=O)C(=O)N[C@@H](Cc1c[nH]c2ccccc12)C(=O)N[C@@H](CC(C)C)C(=O)N[C@@H](CCSC)C(=O)N[C@@H](CC(N)=O)C(=O)N[C@H](C(N)=O)[C@@H](C)O)C(C)C` [Peptide 33] (H-HSQGTFTSDYSKYLDSRMAYDFVQWLMNT-NH2), the EC50 worked out at 0.079 ± 0.033 nM in assay [1] (setting [3]) and 0.059 ± 0.003 nM in assay [2].

On to `CSCC[C@H](NC(=O)[C@H](CC(C)C)NC(=O)[C@H](Cc1c[nH]c2ccccc12)NC(=O)[C@H](CCC(N)=O)NC(=O)[C@@H](NC(=O)[C@H](Cc1ccccc1)NC(=O)[C@H](CC(=O)O)NC(=O)[C@H](Cc1c[nH]cn1)NC(=O)[C@H](C)NC(=O)[C@H](CCCNC(=N)N)NC(=O)[C@H](CCCNC(=N)N)NC(=O)[C@H](CC(=O)O)NC(=O)[C@H](CCC(=O)O)NC(=O)[C@@H](NC(=O)[C@H](Cc1ccc(O)cc1)NC(=O)[C@H](CCCCN)NC(=O)[C@H](CO)NC(=O)[C@H](Cc1ccc(O)cc1)NC(=O)[C@H](CC(=O)O)NC(=O)[C@H](CO)NC(=O)[C@@H](NC(=O)[C@H](Cc1ccccc1)NC(=O)[C@@H](NC(=O)CNC(=O)[C@H](CCC(N)=O)NC(=O)[C@H](CO)NC(=O)[C@@H](N)Cc1c[nH]cn1)[C@@H](C)O)[C@@H](C)O)C(C)C)C(C)C)C(=O)N[C@@H](CC(N)=O)C(=O)N[C@H](C(N)=O)[C@@H](C)O` [Peptide 2] (H-HSQGTFTSDYSKYVEDRRAHDFVQWLMNT-NH2), for which the concentration for a half-maximal effect (EC50) was determined as 2.24 ± 0.334 nM in assay [1] (setting [3]) and 0.184 ± 0.006 nM in assay [2].

On to `CC(C)C[C@H](NC(=O)[C@H](CC(C)C)NC(=O)[C@H](Cc1c[nH]c2ccccc12)NC(=O)[C@H](CCC(N)=O)NC(=O)[C@@H](NC(=O)[C@H](Cc1ccccc1)NC(=O)[C@H](CC(=O)O)NC(=O)[C@H](CCC(N)=O)NC(=O)[C@H](C)NC(=O)[C@H](CCCNC(=N)N)NC(=O)[C@H](CCCNC(=N)N)NC(=O)[C@H](CO)NC(=O)[C@H](CC(=O)O)NC(=O)[C@H](CC(C)C)NC(=O)[C@H](Cc1ccc(O)cc1)NC(=O)[C@H](CCCCN)NC(=O)[C@H](CO)NC(=O)[C@H](Cc1ccc(O)cc1)NC(=O)[C@H](CC(=O)O)NC(=O)[C@H](CO)NC(=O)[C@@H](NC(=O)[C@H](Cc1ccccc1)NC(=O)[C@@H](NC(=O)CNC(=O)[C@H](CCC(N)=O)NC(=O)[C@H](CO)NC(=O)[C@@H](N)Cc1c[nH]cn1)[C@@H](C)O)[C@@H](C)O)C(C)C)C(=O)N[C@@H](CC(=O)O)C(=O)N[C@@H](CO)C(N)=O` [Peptide 35], for which the concentration for a half-maximal effect (EC50) in assay [2] worked out at 0.018 ± 0.001 nM.

Consider `CCCCCCCCCCCCCCCC(=O)N[C@@H](CCC(=O)N[C@@H](CCC(=O)NCCCC[C@H](NC(=O)[C@H](CC(=O)O)NC(=O)[C@H](CO)NC(=O)[C@@H](NC(=O)[C@H](Cc1ccccc1)NC(=O)[C@@H](NC(=O)CNC(=O)[C@H](CCC(N)=O)NC(=O)[C@@H](CO)NC(=O)[C@@H](N)Cc1c[nH]cn1)[C@@H](C)O)[C@@H](C)O)C(=O)N[C@@H](CO)C(=O)N[C@@H](CCCCN)C(=O)N[C@@H](Cc1ccc(O)cc1)C(=O)N[C@@H](CC(C)C)C(=O)N[C@@H](CC(=O)O)C(=O)N[C@@H](CO)C(=O)N[C@@H](CCCNC(=N)N)C(=O)N[C@@H](CCCNC(=N)N)C(=O)N[C@@H](C)C(=O)N[C@@H](Cc1c[nH]cn1)C(=O)N[C@@H](CC(=O)O)C(=O)N[C@@H](Cc1ccccc1)C(=O)N[C@H](C(=O)N[C@@H](CCC(N)=O)C(=O)N[C@@H](Cc1c[nH]c2ccccc12)C(=O)N[C@@H](CC(C)C)C(=O)N[C@@H](CC(C)C)C(=O)N[C@@H](CC(N)=O)C(=O)N[C@H](C(N)=O)[C@@H](C)O)C(C)C)C(=O)O)C(=O)O` [Peptide 36], for which, in assay [1] (Table 3, engineered versus parent peptides, read-out: EC50 hGCGR), the EC50 came out at 0.023 ± 0.004 nM.

For `CC[C@H](C)[C@H](N)C(=O)N[C@@H](CC(N)=O)C(=O)N[C@@H](Cc1c[nH]cn1)C(=O)N[C@@H](CCC(=O)O)C(=O)N[C@@H](CCC(N)=O)C(=O)N[C@@H](Cc1c[nH]c2ccccc12)C(=O)N[C@@H](C)C(=O)N[C@@H](Cc1ccccc1)C(=O)N[C@H](C(=O)N[C@@H](CO)C(=O)N[C@@H](CC(=O)O)C(=O)N[C@@H](Cc1ccc(O)cc1)C(=O)N[C@@H](CO)C(=O)N[C@@H](CCCCN)C(=O)N[C@@H](Cc1ccc(O)cc1)C(=O)N[C@@H](CC(C)C)C(=O)N[C@@H](CC(=O)O)C(=O)N[C@@H](CO)C(=O)N[C@@H](CCCNC(=N)N)C(=O)N[C@@H](CCCNC(=N)N)C(=O)N[C@@H](C)C(=O)N[C@@H](CCC(N)=O)C(=O)N[C@@H](CC(=O)O)C(=O)N[C@@H](Cc1ccccc1)C(=O)N[C@H](C(=O)N[C@@H](CCC(N)=O)C(=O)N[C@@H](Cc1c[nH]c2ccccc12)C(=O)N[C@@H](CC(C)C)C(=O)N[C@@H](CCSC)C(=O)N[C@@H](CC(N)=O)C(=O)N[C@H](C(N)=O)[C@@H](C)O)C(C)C)[C@@H](C)O` [Peptide 14] (H-INHEQWAFTSDYSKYLDSRRAQDFVQWLMNT-NH2), the EC50 in assay [1] (setting [3]) turned out to be 2.6 ± 3.68 nM.

For the origin of these results see paper PMC5766609 (Scientific Reports, 2018).
